Data from patent publication US20230226207A1, “Camptothecin Drug Having High-Stability Hydrophilic Connecting Unit And Conjugate Thereof” (SICHUAN BAILI PHARM CO., LTD, priority 2020, published 2023).
pIC50: −log10 of the molar value.

What was measured:
[1] = system: N87 (human gastric cancer cells); test: In vitro proliferation inhibition of N87 tumor cells (MTS); type: cell-based; settings: 120 h, 5 days
Experimental: (§1) 1) Experimental Materials • Cells: from the cell bank of the Chinese Academy of Sciences; • Tumor cell culture medium: Gibco; • FBS: BIOWEST;
(§2) 2) Preparation of Medium • Growth medium (with 10% FBS, Penicillin/streptomycin (100 U/mL); • Detection medium (with 1% FBS, Penicillin/streptomycin (100 U/mL);
(§3) Turn on the UV lamp in the biological safety cabinet 30 minutes in advance, and ventilate for 3 minutes. Put the growth medium, detection medium, D-PBS and pancreatin into a 37° C. constant temperature water bath to preheat, then disinfect the surface with alcohol and put it in a biological safety cabinet. Select cells with a confluence of ˜80% (logarithmic growth phase), put them in a biological safety cabinet, aspirate the old medium, rinse with D-PBS, aspirate and discard, digest with trypsin for 2 to 3 minutes, and then add to growth Stop trypsin in the medium, and centrifuge at 500×g for 5 min. Aspirate the centrifugal supernatant, mix well with 4 mL detection medium, take 100 uL for counting (take out 50 uL cell fluid, add 50 μL 0.4% Trypan Blue Stain and mix well, and count after mixing). Plate the plate according to the number of cells set before, and plate 80 uL/well in a 96-well plate. Only add 80 uL detection medium to wells E11, F11, and G11, and add 200 uL DPBS to the edge holes to seal the edges. […]
(§4) Take out the MTS reagent after the test sample is exposed for 5 days. […] After the reaction, the 96-well plate was taken out, the OD490 nm absorbance value was detected in the microplate reader, and the data was recorded, sorted, and stored.

[2] = system: SK-BR-3 (human breast adenocarcinoma cells); test: In vitro proliferation inhibition of SK-BR-3 tumor cells (MTS); type: cell-based; settings: 120 h, SK-BR-3 cells, 5 days
Experimental: as §1, §2, §3, §4

Row | Compound | pIC50 [1] | pIC50 [2]
1 | CC[C@@]1(O)C(=O)OCc2c1cc1n(c2=O)Cc2c-1nc1cc(F)c(C)c3c1c2[C@@H](NC(=O)CO)CC3 [d1] | 7.87 | 6.98
2 | CC[C@@]1(O)C(=O)OCc2c1cc1n(c2=O)Cc2c-1nc1cc(F)c(C)c3c1c2[C@@H](NC(=O)[C@H](C)O)CC3 [d3] | 8.10 | 6.74
3 | CC[C@@]1(O)C(=O)OCc2c1cc1n(c2=O)Cc2c-1nc1cc(F)c(C)c3c1c2[C@@H](NC(=O)[C@H](O)C(F)(F)F)CC3 [d6] | 8.67 | 6.62
